IC50, inhibition and Activity data for six molecules are collected here from ChEMBL document CHEMBL5131396, “Structure-activity relationship for the folding intermediate-selective inhibition of DYRK1A” (Eur J Med Chem, 2022).

Calls of active or inactive are those of the source. The rule behind the calls is not given here.

In series [1] the target is T1, Dual specificity tyrosine-phosphorylation-regulated kinase 1A (Homo sapiens, UniProt Q13627). As to the kind of experiment: Inhibition of FLAG-tagged full-length human recombinant DYRK1A (127 to 485 residues) expressed in Escherichia coli assessed as reduction in autophosphorylation at Ser97 residue by Western blot analysis.
Series [2] concerns the target T1, Dual specificity tyrosine-phosphorylation-regulated kinase 1A. Description: Inhibition of FLAG-tagged full-length human recombinant DYRK1A (127 to 485 residues) expressed in Escherichia coli assessed as reduction in phosphorylated tyrosine level by Western blot analysis. The settings on record: dose <= 32.0 µM, DDE = dose-dependent effect.
Another series concerns HEK293. As to the kind of experiment: Cytotoxicity against HEK293 cells up to 8 uM. It is filed as toxicity, cell-based. The following applies: human, hek293, 8 µM.
Series [3] concerns the target T1, Dual specificity tyrosine-phosphorylation-regulated kinase 1A. As to the kind of experiment: Induction of degradation of endogenous FLAG-tagged full-length human recombinant DYRK1A (127 to 485 residues) expressed in Escherichia coli in HEK293 cells assessed as decrease in protein level measured after 4 days by Western blot analysis. The following applies: dose <= 8.0 µM, time 4.0 day, DDE = dose-dependent effect. (In general: In western blotting, separated proteins are transferred to a membrane and probed.)

Series [4] has as its target Rho-associated protein kinase 1 (Homo sapiens) (UniProt Q13464). Description: Inhibition of ROCK1 in HEK293 cells at 1 to 2 uM measured after 4 days by Western blot analysis. It counts as cell-based. The settings on record: dose 1-2 µM, time 4.0 day.
The target of series [5] is Serine/threonine-protein kinase D1 (Homo sapiens) (UniProt Q15139). As to the kind of experiment: Inhibition of PKD1 in HEK293 cells at 1 to 2 uM measured after 4 days by Western blot analysis. The following applies: dose 1-2 µM, time 4.0 day.
Chain of Serine/threonine-protein kinase D1 (Homo sapiens) (Q15139 whole entry, looked up): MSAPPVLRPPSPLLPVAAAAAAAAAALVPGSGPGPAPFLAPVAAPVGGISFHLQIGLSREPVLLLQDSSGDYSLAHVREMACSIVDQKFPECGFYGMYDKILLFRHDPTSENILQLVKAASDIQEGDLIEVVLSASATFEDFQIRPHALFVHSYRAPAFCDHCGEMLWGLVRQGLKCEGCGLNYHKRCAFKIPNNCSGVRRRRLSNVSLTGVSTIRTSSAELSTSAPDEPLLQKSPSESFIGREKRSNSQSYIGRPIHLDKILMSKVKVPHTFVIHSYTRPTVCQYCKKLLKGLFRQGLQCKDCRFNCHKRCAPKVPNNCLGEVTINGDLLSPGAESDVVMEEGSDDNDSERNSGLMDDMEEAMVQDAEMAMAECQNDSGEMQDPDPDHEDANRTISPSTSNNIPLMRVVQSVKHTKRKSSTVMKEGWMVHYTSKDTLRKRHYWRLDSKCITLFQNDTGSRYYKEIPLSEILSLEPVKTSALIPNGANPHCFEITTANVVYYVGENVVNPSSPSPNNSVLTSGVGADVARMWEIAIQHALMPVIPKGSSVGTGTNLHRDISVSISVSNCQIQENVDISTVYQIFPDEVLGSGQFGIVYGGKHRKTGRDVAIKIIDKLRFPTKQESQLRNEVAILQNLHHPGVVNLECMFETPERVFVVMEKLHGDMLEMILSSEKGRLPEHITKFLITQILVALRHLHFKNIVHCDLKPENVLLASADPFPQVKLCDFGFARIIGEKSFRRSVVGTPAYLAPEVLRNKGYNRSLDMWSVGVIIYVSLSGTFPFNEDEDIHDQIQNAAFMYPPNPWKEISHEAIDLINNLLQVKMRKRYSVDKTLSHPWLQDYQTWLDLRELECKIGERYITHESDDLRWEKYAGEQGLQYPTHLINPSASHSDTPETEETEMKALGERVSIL
For series [6] the target is unchanged. Description: Inhibition of recombinant PKD1 in HEK293 cells at 32 uM using DYRKtide peptide as substrate incubated for 45 mins in presence of ATP by Kinase-Glo Luminescent kinase assay. A general note: Kinase-Glo measures the ATP left after a reaction by luminescence.
In series [7] the target is T1, Dual specificity tyrosine-phosphorylation-regulated kinase 1A. Description: Inhibition of FLAG-tagged full-length human recombinant DYRK1A (127 to 485 residues) expressed in Escherichia coli assessed as reduction in TAU intermolecular phosphorylation incubated for 30 mins by Western blot analysis.

As usually defined, the IC50 is the midpoint of a concentration-inhibition curve.

Chain of Rho-associated protein kinase 1 (Homo sapiens) (Q13464 2-1354 limits assumed): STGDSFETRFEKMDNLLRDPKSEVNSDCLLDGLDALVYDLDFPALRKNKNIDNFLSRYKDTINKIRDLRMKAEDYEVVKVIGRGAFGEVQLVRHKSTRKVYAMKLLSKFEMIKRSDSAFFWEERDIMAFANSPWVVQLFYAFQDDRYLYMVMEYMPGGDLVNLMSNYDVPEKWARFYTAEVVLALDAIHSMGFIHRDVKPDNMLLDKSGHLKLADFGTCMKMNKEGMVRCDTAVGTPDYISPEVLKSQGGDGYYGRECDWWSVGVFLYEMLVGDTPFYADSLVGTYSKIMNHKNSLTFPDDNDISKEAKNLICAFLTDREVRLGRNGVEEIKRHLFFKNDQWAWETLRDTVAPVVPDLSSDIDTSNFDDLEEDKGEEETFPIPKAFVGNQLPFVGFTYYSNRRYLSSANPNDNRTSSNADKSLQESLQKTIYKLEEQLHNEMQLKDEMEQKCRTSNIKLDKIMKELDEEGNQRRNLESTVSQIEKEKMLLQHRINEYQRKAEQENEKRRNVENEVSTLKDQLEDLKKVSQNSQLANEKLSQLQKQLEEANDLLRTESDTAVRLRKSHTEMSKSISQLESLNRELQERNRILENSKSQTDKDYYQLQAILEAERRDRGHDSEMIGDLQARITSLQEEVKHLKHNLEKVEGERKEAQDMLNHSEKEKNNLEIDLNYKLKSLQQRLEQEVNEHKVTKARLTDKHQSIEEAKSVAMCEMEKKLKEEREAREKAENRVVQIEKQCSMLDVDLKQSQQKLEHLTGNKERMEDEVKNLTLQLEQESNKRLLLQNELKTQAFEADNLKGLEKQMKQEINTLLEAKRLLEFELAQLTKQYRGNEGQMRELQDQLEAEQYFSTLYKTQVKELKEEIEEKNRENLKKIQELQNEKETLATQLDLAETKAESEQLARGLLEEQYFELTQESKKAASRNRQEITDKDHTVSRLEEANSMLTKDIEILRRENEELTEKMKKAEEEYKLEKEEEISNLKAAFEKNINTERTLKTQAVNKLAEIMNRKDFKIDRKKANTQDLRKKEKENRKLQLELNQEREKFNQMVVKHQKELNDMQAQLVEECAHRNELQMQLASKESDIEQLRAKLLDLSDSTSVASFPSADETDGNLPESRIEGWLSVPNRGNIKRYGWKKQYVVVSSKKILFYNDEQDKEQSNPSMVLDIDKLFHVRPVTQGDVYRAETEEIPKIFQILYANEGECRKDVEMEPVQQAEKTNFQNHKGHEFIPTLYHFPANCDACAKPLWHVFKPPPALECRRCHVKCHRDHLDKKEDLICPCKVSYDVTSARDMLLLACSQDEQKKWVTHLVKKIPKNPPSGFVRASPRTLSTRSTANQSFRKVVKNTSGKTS

As to `COc1ccc(/C=C2\SC(=S)NC2=O)cc1/C=C/C(C)(C)C`, in series [1], the IC50 is greater than 32 µM.

`COc1ccc(/C=C2\SC(=S)NC2=O)cc1C#C[Si](C)(c1ccccc1)c1ccccc1`: the IC50 in series [1] was 0.53 µM. The inhibition entry in series [2] is “Dde”. For the same molecule, the Activity entry in the series with HEK293 was “Non-Toxic”; in series [3], “Dde”. The inhibition result in series [4], in series [5] and in series [6] was “Active” in each case.

As for `COc1ccc(/C=C2\SC(=S)NC2=O)cc1/C=C/C1CCCCC1`, the IC50 in series [1] was greater than 32 µM.

`CCOc1cc(/C=C2\SC(=S)NC2=O)ccc1O`: in series [7], the inhibition entry was “Active”.

In the case of `COc1ccc(/C=C2\SC(=S)NC2=O)cc1C#C[Si](C)(C)C`, the inhibition result in series [2] was “Dde”. In addition, the Activity entry with HEK293 is “Non-Toxic”. The inhibition result in series [6] was “Active”.

With `COc1ccc(/C=C2\SC(=S)NC2=O)cc1/C=C/[Si](C)(C)C`, in series [1], the IC50 is greater than 32 µM.
